From the supplement of paper PMC11061612

What was measured:
[1] = test system: JHH-1 (Hepatocellular Carcinoma); assay: Bliss excess, mean over the matrix (fraction); higher = more synergy
In short: (§1)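 After 24 hours at 37°C and 5% CO2 in 1536-well plates, cells in DMEM/F12 or RPMI plus 10% FBS received two-drug dose matrices for 72 hours. Viability came from CellTiter-Glo 2.0 luminescence and was scaled as inhibition, anchored at 0 by vehicle wells and at 1 by blank wells. Combination Emax is taken as the second-highest inhibition in the matrix, and Bliss excess as the observed combination effect less EA + EB − EA·EB, with EA and EB the single-agent effects.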

[2] = test system: OVTOKO (Ovarian Carcinoma); assay: as above
In short: as §1

[3] = test system: AsPC-1 (Pancreatic Carcinoma); assay: combination Emax (second highest fraction inhibited in the dose matrix, 72 h); higher = more inhibition; extreme values may be limits of the assay
In short: as §1

[4] = test system: Becker (Low Grade Glioma); assay: as above
In short: as §1

CHL-1 (Melanoma) = assay: as above
In short: as §1

[5] = test system: COLO-684 (Endometrial Carcinoma); assay: as above
In short: as §1

[6] = test system: Calu-6 (Non-Small Cell Lung Carcinoma); assay: as above
In short: as §1

[7] = test system: EB-3 (Burkitt's Lymphoma); assay: as above
In short: as §1

[8] = test system: FLO-1 (Esophageal Adenocarcinoma); assay: as above
In short: as §1

[9] = test system: HTC-C3 (Thyroid Gland Carcinoma); assay: as above
In short: as §1

[10] = test system: JHH-1 (Hepatocellular Carcinoma); assay: as above
In short: as §1

KYM-1 (Rhabdomyosarcoma) = assay: as above
In short: as §1

[11] = test system: KYSE-70 (Esophageal Squamous Cell Carcinoma); assay: as above
In short: as §1

[12] = test system: NCI-H1155 (Non-Small Cell Lung Carcinoma); assay: as above
In short: as §1

[13] = test system: NCI-H1563 (Lung Adenocarcinoma); assay: as above
In short: as §1

[14] = test system: NCI-H1623 (Lung Adenocarcinoma); assay: as above
In short: as §1

[15] = test system: NCI-H1755 (Lung Adenocarcinoma); assay: as above
In short: as §1

[16] = test system: OCI-AML5 (Acute Myeloid Leukemia); assay: as above
In short: as §1

[17] = test system: RMG-I (Ovarian Carcinoma); assay: as above
In short: as §1

[18] = test system: RPMI-8866 (Chronic Myelogenous Leukemia); assay: as above
In short: as §1
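For Bliss excess, mean over the matrix in this document: after 72 h of two-drug dosing.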

| Structure (SMILES) | Bliss excess [1] | Bliss excess [2] | combination Emax [3] | combination Emax [4] | combination Emax (CHL-1 (Melanoma)) | combination Emax [5] | combination Emax [6] | combination Emax [7] | combination Emax [8] | combination Emax [9] | combination Emax [10] | combination Emax (KYM-1 (Rhabdomyosarcoma)) | combination Emax [11] | combination Emax [12] | combination Emax [13] | combination Emax [14] | combination Emax [15] | combination Emax [16] | combination Emax [17] | combination Emax [18] |
| --- | --- | --- | --- | --- | --- | --- | --- | --- | --- | --- | --- | --- | --- | --- | --- | --- | --- | --- | --- | --- |
| CC1(C)CCC(CN2CCN(c3ccc(C(=O)NS(=O)(=O)c4ccc(NCC5CCOCC5)c([N+](=O)[O-])c4)c(Oc4cnc5[nH]ccc5c4)c3)CC2)=C(c2ccc(Cl)cc2)C1 [Venetoclax] + CCN(CCO)CCCOc1ccc2c(Nc3cc(CC(=O)Nc4cccc(F)c4)[nH]n3)ncnc2c1 [AZD2811] (first compound max 1 µM, 7x7, partner max 1 µM) | -0.0166 | -0.0183 | 0.154 | 0.221 | 0.531 | 0.19 | 0.346 | 0.319 | 0.359 | 0.121 | 0.268 | 0.162 | 0.224 | 0.887 | 0.193 | 0.211 | 0.678 | 1 | 0.302 | 0.601 |
| CC1(C)CCC(CN2CCN(c3ccc(C(=O)NS(=O)(=O)c4ccc(NCC5CCOCC5)c([N+](=O)[O-])c4)c(Oc4cnc5[nH]ccc5c4)c3)CC2)=C(c2ccc(Cl)cc2)C1 [Venetoclax] + CN(C)CCCOc1ccc(-c2ccc3ncc4c(c3c2)n(C2CCOCC2)c(=O)n4C)cn1 [AZD0156] (first compound max 1 µM, 7x7, partner max 1 µM) | -0.042 | -0.086 | 0.193 | 0.434 | 0.27 | 0.211 | 0.199 | 0.343 | 0.339 | 0.205 | 0.214 | 0.158 | 0.104 | 0.145 | 0.406 | 0.262 | 0.654 | 0.901 | 0.348 | 0.0785 |
| CC1(C)CCC(CN2CCN(c3ccc(C(=O)NS(=O)(=O)c4ccc(NCC5CCOCC5)c([N+](=O)[O-])c4)c(Oc4cnc5[nH]ccc5c4)c3)CC2)=C(c2ccc(Cl)cc2)C1 [Venetoclax] + COc1cc(Nc2ncc3c(n2)-c2ccc(Cl)cc2C(c2c(F)cccc2OC)=NC3)ccc1C(=O)O [Alisertib] (first compound max 1 µM, 7x7, partner max 10 µM) | 0.0308 | -0.0508 | 0.136 | 0.547 | 0.778 | 0.264 | 0.584 | 0.418 | 0.514 | 0.365 | 0.567 | 0.21 | 0.392 | 0.809 | 0.466 | 0.391 | 0.66 | 1 | 0.371 | 0.89 |
| CC1(C)CCC(CN2CCN(c3ccc(C(=O)NS(=O)(=O)c4ccc(NCC5CCOCC5)c([N+](=O)[O-])c4)c(Oc4cnc5[nH]ccc5c4)c3)CC2)=C(c2ccc(Cl)cc2)C1 [Venetoclax] + C[C@@H]1COCCN1C2=NC(=NC(=C2)C3(CC3)[S@](=N)(=O)C)C4=C5C=CNC5=NC=C4 [AZD6738] (first compound max 1 µM, 7x7, partner max 10 µM) | -0.0365 | -0.0395 | 0.264 | 0.656 | 0.879 | 0.753 | 0.801 | 0.6 | 0.559 | 0.674 | 0.609 | 0.839 | 0.433 | 0.829 | 0.307 | 0.827 | 0.828 | 1 | 0.545 | 0.958 |
| CC1(C)CCC(CN2CCN(c3ccc(C(=O)NS(=O)(=O)c4ccc(NCC5CCOCC5)c([N+](=O)[O-])c4)c(Oc4cnc5[nH]ccc5c4)c3)CC2)=C(c2ccc(Cl)cc2)C1 [Venetoclax] + C[C@@H](Nc1cc(F)cc(F)c1)c1cc(C(=O)N(C)C)cc2c(=O)cc(N3CCOCC3)oc12 [AZD8186] (first compound max 1 µM, 7x7, partner max 3 µM) | -0.0413 | -0.0535 | 0.104 | 0.418 | 0.147 | 0.529 | 0.125 | 0.198 | 0.543 | 0.149 | 0.172 | 0.162 | 0.0812 | 0.422 | 0.431 | 0.378 | 0.588 | 1 | 0.277 | 0.594 |
| CC1(C)CCC(CN2CCN(c3ccc(C(=O)NS(=O)(=O)c4ccc(NCC5CCOCC5)c([N+](=O)[O-])c4)c(Oc4cnc5[nH]ccc5c4)c3)CC2)=C(c2ccc(Cl)cc2)C1 [Venetoclax] + Cc1cc2ncnn2cc1Nc1ncc2c(n1)n(C1CCOCC1)c(=O)n2C [AZD7648] (first compound max 1 µM, 7x7, partner max 10 µM) | -0.0374 | -0.0518 | 0.246 | 0.19 | 0.215 | 0.349 | 0.275 | 0.477 | 0.249 | 0.205 | 0.199 | 0.159 | 0.169 | 0.164 | 0.391 | 0.371 | 0.534 | 0.943 | 0.312 | 0.316 |
| CC1(C)CCC(CN2CCN(c3ccc(C(=O)NS(=O)(=O)c4ccc(NCC5CCOCC5)c([N+](=O)[O-])c4)c(Oc4cnc5[nH]ccc5c4)c3)CC2)=C(c2ccc(Cl)cc2)C1 [Venetoclax] + Cn1cnc2c(F)c(Nc3ccc(Br)cc3Cl)c(C(=O)NOCCO)cc21 [Selumetinib] (first compound max 1 µM, 7x7, partner max 3 µM) | -0.0588 | -0.0544 | 0.403 | 0.215 | 0.0922 | 0.0813 | 0.431 | 0.154 | 0.319 | 0.508 | 0.272 | 0.124 | 0.19 | 0.371 | 0.242 | 0.256 | 0.636 | 1 | 0.267 | 0.293 |
